Test results: the CheMixHub ionic liquid set
“And” between values parts separate entries of the source, which are not always exact repeats. Equal values may be shown once.

Experiment: xn = mol fraction of the nth substance listed

CC(CC(C)(C)C)CP(=O)([O-])CC(C)CC(C)(C)C.CCCCCCCCCCCCCC[P+](CCCCCC)(CCCCCC)CCCCCC + O
100 kPa
Conditions | viscosity [mPa·s]
298.15 K, x1 = 0.1299 | 139
323.15 K, x1 = 0.7943 | 264

CC(O)C(=O)[O-].CCOCCn1cc[n+](C)c1 + O
100 kPa
Conditions | electrical conductivity [S/m] | viscosity [mPa·s]
293.15 K, x1 = 0.8093 | 0.292 | 70.03
293.15 K, x1 = 0.8365 | 0.261 | 74.7
293.15 K, x1 = 0.9017 | 0.2 | 85.7
298.15 K, x1 = 0.8702 | 0.276 | 60.47
303.15 K, x1 = 0.938 | 0.274 | 52.44
308.15 K, x1 = 0.8093 | 0.498 | 31.76
308.15 K, x1 = 0.8365 | 0.464 | 33.56
308.15 K, x1 = 0.8702 | 0.43 | 35.75
318.15 K, x1 = 0.9017 | 0.617 | 22.56

CCCCCCCC(=O)[O-].CCCCCC[NH+](CCCCCC)CCCCCC + O
298.15 K, 101 kPa
Conditions | viscosity
x1 = 0.3915 | 15.08 mPa·s and 15.76 mPa·s
x1 = 0.7748 | 20.5 mPa·s and 21.52 mPa·s

CCCCCCCCCC[n+]1ccn(C)c1.[Br-] + O
electrical conductivity [S/m], 101 kPa
Conditions | 296 K | 301 K | 306 K | 311 K | 316 K
x1 = 0.0001622 | – | – | – | – | 0.0606
x1 = 0.0002342 | – | – | – | – | 0.0892
x1 = 0.0002522 | 0.0652 | – | – | 0.0827 | –
x1 = 0.0003423 | 0.0864 | – | 0.1 | 0.107 | 0.117
x1 = 0.0003603 | – | 0.0919 | – | – | –
x1 = 0.0004503 | 0.102 | 0.11 | 0.118 | 0.131 | 0.14
x1 = 0.0005763 | 0.125 | 0.134 | 0.141 | 0.155 | 0.168
x1 = 0.0007023 | 0.141 | 0.152 | 0.162 | 0.175 | 0.191
x1 = 0.0008462 | – | 0.172 | – | – | 0.223
x1 = 0.0008642 | 0.163 | – | 0.188 | 0.202 | –
x1 = 0.001026 | 0.176 | 0.186 | 0.205 | 0.221 | 0.248
x1 = 0.001206 | 0.195 | 0.204 | 0.223 | 0.243 | 0.272
x1 = 0.001422 | 0.205 | 0.22 | 0.237 | 0.254 | 0.291
x1 = 0.001673 | 0.216 | 0.23 | 0.257 | 0.271 | 0.309
x1 = 0.00196 | 0.234 | 0.24 | 0.263 | 0.28 | 0.323
x1 = 0.002301 | – | – | 0.274 | 0.293 | 0.34
x1 = 0.002319 | – | 0.251 | – | – | –

298.15 K, 100 kPa, frequency 5e-05 MHz
Conditions | electrical conductivity [S/m]
x1 = 0.0003459 | 0.175
x1 = 0.0003945 | 0.199
x1 = 0.0004629 | 0.235
x1 = 0.0004917 | 0.249
x1 = 0.0005259 | 0.265
x1 = 0.0005781 | 0.289
x1 = 0.0006231 | 0.31
x1 = 0.0006537 | 0.325
x1 = 0.0006861 | 0.34
x1 = 0.0007311 | 0.36
x1 = 0.0007563 | 0.37
x1 = 0.0007922 | 0.374
x1 = 0.0009038 | 0.387
x1 = 0.000938 | 0.391
x1 = 0.0009775 | 0.395
x1 = 0.001044 | 0.403
x1 = 0.001082 | 0.407
x1 = 0.001118 | 0.41
x1 = 0.001152 | 0.414
x1 = 0.001206 | 0.422

CCCCCC[N+](CC)(CC)CC.O=S(=O)([N-]S(=O)(=O)C(F)(F)F)C(F)(F)F + O
101 kPa, x2 = 0.1627
Conditions | viscosity [mPa·s]
293.25 K | 79.3
308.05 K | 44.04

CCCCCC[n+]1ccn(C)c1.F[P-](F)(F)(F)(F)F + O
101 kPa, x2 = 0.22
Conditions | electrical conductivity [S/m] | viscosity [mPa·s]
293.15 K | – | 269
295.15 K | 0.1 | –

CCCC[P+](C)(CCCC)CCCC.COS(=O)(=O)[O-] + O
Conditions | viscosity [mPa·s]
298.15 K, 100 kPa, x1 = 0.004192 | 1.135

CCCC[n+]1ccn(C)c1.O=S(=O)([N-]S(=O)(=O)C(F)(F)F)C(F)(F)F + O
Conditions | electrical conductivity [S/m] | viscosity [mPa·s]
298 K, 101 kPa, x2 = 0 | – | 50.4
298 K, 101 kPa, x2 = 0.0227 | 0.427 | –
298 K, 101 kPa, x2 = 0.0272 | 0.442 | –
298 K, 101 kPa, x2 = 0.0915 | 0.472 | –
298 K, 101 kPa, x2 = 0.1024 | 0.498 | –
333.15 K, 100 kPa, x2 = 0.257 | – | 10.68
343.15 K, 100 kPa, x2 = 0.257 | – | 8.479
353.15 K, 100 kPa, x2 = 0.257 | – | 6.903

CC[n+]1ccn(C)c1.O=S(=O)([O-])O + O
viscosity [mPa·s]
Conditions | 293.15 K | 298.15 K | 303.15 K | 308.15 K | 313.15 K | 318.15 K
100 kPa, x1 = 0.0005421 | 1.046 | 0.929 | 0.824 | 0.75 | 0.678 | –
100 kPa, x1 = 0.0009002 | 1.05 | 0.94 | 0.84 | 0.76 | 0.69 | 0.65
100 kPa, x1 = 0.0009056 | 1.068 | 0.949 | 0.843 | 0.759 | 0.684 | –
100 kPa, x1 = 0.001263 | 1.073 | 0.966 | 0.866 | 0.78 | 0.697 | –
100 kPa, x1 = 0.001799 | 1.07 | 0.95 | 0.85 | 0.77 | 0.7 | 0.64
100 kPa, x1 = 0.002696 | 1.08 | 0.96 | 0.86 | 0.78 | 0.71 | 0.64
101 kPa, x1 = 0.0006645 | 1.023 | 0.93 | 0.8234 | 0.7498 | 0.6736 | –
101 kPa, x1 = 0.0007293 | 1.036 | 0.943 | 0.8247 | 0.7493 | 0.6893 | –
101 kPa, x1 = 0.0009254 | 1.064 | 0.943 | 0.8439 | 0.7628 | 0.6829 | –

CCn1cc[n+](C)c1.COCCOCCOS(=O)(=O)[O-] + O
101 kPa
Conditions | electrical conductivity [S/m]
298.2 K, x2 = 0.4 | 0.3
298.2 K, x2 = 0.6 | 0.51
313.2 K, x2 = 0.2 | 0.46
313.2 K, x2 = 0.8 | 1.63
328.2 K, x2 = 0.4 | 0.92
338.2 K, x2 = 0.2 | 1.05
338.2 K, x2 = 0.6 | 1.77
338.2 K, x2 = 0.8 | 2.97
343.2 K, x2 = 0.8 | 3.28
348.2 K, x2 = 0.2 | 1.36
348.2 K, x2 = 0.4 | 1.51
353.2 K, x2 = 0.6 | 2.39
353.2 K, x2 = 0.8 | 3.93
